Data from paper PMC11211886 (Frontiers in Pharmacology, 2024).
Values joined by “and” are separate entries in the source; they are usually repeats but may differ in a detail not shown here. Identical values can stand only once.

Columns and labels:
CYP2C19 = target: T1, CYP2C19 (Homo sapiens, UniProt P33261); test: Time-dependent CYP inhibition in HLM, CYP2C19; assay type: in vitro ADME; conditions: 10 μM, 30 min pre-incubation with NADPH
T1 construct: tissue Life Technologies (Durham, NC, USA); host or cells: human liver microsomes
T1 sequence (P33261 whole entry): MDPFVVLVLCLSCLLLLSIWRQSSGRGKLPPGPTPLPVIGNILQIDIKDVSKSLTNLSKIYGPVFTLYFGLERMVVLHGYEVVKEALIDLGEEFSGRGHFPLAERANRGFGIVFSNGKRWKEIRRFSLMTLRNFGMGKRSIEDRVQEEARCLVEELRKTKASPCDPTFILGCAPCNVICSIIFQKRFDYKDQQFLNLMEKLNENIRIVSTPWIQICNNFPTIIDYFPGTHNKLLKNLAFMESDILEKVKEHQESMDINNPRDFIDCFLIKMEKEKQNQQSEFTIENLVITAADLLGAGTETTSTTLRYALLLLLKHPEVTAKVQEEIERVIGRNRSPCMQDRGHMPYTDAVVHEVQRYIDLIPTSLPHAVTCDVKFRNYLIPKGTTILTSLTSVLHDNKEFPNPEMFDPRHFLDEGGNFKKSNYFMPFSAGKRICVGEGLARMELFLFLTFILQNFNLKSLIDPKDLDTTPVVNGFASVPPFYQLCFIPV
Protocol: The procedure of time-dependent CYP inhibition was similar to that used for CYP reversible inhibition, as mentioned above, except that a pre-incubation step was added. […] Another appropriate volume of the NADPH-regenerating system and probe substrate were added to initiate the CYP isoform enzyme activity test step. For this step, the incubation period was 10 min, except for CYP2B6, CYP2C8, and CYP3A4/5 (probe substrate: midazolam), which was 3 min to make sure the reaction was under initial linear rates. After incubation for the designated time periods at 37°C, the ice-cold acetonitrile containing IS was added to quench the reaction. […] (Ainactivator/[…] represents the enzyme activity remaining due to the inhibition by the diluted inactivator in the enzyme activity test step, and (Ainactivator/[…] represents the remaining enzyme activity due to pre-incubation loss plus inhibition by the diluted inactivator in the enzyme activity test step.

[1] = Whole blood-to-plasma partition, dog blood; assay type: in vitro ADME
Protocol: The whole blood and plasma samples were incubated at 37°C for up to 1 h. Serial samples (150 µL) were collected at different time points (0, 10, and 60 min) and transferred into new tubes. The whole blood samples were then centrifuged at 1700 g for 15 min to harvest plasma.

CYP2B6 = target: T2, CYP2B6 (Homo sapiens, UniProt P20813); test: Reversible CYP inhibition in HLM, CYP2B6 (bupropion); assay type: in vitro ADME; conditions: for enzyme activity remaining: CYP2B6, HLM
T2 construct: tissue Life Technologies (Durham, NC, USA); host or cells: human liver microsomes
T2 sequence (P20813 1-491): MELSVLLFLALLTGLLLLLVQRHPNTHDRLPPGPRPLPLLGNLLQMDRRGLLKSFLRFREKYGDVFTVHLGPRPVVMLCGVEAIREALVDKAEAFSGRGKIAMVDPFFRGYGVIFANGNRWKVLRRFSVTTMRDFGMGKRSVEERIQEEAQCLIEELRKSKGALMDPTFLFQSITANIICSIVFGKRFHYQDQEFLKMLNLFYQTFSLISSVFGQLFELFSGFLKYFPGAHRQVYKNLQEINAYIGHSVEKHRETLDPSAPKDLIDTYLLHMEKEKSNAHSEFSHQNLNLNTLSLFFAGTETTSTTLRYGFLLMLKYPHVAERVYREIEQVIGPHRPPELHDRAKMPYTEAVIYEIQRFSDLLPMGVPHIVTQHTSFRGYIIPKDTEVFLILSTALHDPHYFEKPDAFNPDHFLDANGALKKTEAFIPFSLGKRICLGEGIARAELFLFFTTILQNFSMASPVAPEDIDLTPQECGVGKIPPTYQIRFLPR
Protocol: (§1) The markers used to determine the activities of CYP isoforms were phenacetin O-deethylation for CYP1A2 (probe substrate: 50 µM phenacetin), bupropion hydroxylation for CYP2B6 (probe substrate: 70 µM bupropion), paclitaxel 6α-hydroxylation for CYP2C8 (probe substrate: 10 µM paclitaxel), diclofenac 4′-hydroxylation for CYP2C9 (probe substrate: 5 µM diclofenac), S-(+)-mephenytoin 4′-hydroxylation for CYP2C19 (probe substrate: 20 µM S-(+)-mephenytoin), dextromethorphan O-demethylation for CYP2D6 (probe substrate: 6 µM dextromethorphan), chlorzoxazone 6′-hydroxylation for CYP2E1 (probe substrate: 70 µM chlorzoxazone), and testosterone 6β-hydroxylation and midazolam 1′-hydroxylation for CYP3A4/5 (probe substrate: 45 µM testosterone and 5 µM midazolam). […] Alpha-naphthoflavone (0.04 µM), 2-phenyl-2-(1-piperidinyl)propane (5 µM), quercetin (1 µM), sulfaphenazole (0.5 µM), ticlopidine (4 µM), quinidine (0.2 µM), diethyldithiocarbamate (20 µM), and ketoconazole (0.05 µM) were used as positive inhibitors of CYP1A2, 2B6, 2C8, 2C9, 2C19, 2D6, 2E1, and 3A4, respectively. The vehicle control was prepared in the same composition as inhibitor solutions but free of inhibitors. The concentrations of probe substrates were close to Km values that were determined in-house and within the range recommended by the FDA ([Huang et al., 2007]). Reaction mixtures were incubated at 37°C for 5, 20, or 30 min, depending on the probe substrates of CYP isoforms. The reactions were terminated by adding cold acetonitrile containing IS, and the terminated incubation mixtures were centrifuged at 3,000 g for 10 min before LC-MS/MS analysis.

[2] = Human PK projection by allometric scaling; conditions: allometric scaling with correction of MLP and fu
Excerpt: Translational prediction of human plasma total clearance (CL) and volume of distribution at steady state (Vss) was projected using the AS approach for different preclinical species (mice, rats, dogs, and monkeys). The mean value of unbound plasma fraction (fu) in animals was applied to transform pharmacokinetic parameters (Vss or CL) to the corresponding free drug clearance (CLu) and free drug volume of distribution (Vss,u). The CLu in preclinical species was scaled to CLu in humans according to the following equations with consideration of the maximum lifespan potential (MLP) as a correction factor according to the rule of exponents (RoEs) ([Mahmood and Balian, 1996]), and Vss,u in preclinical species was scaled to Vss,u in humans simply based on BW according to the following equations. Both CLu and Vss,u in humans were converted to CL and Vss using the mean value of fu in humans. CLu×MLP=a×BW^b, log (CLu×MLP)=log a+b log BW, Vss,u=a×BW^b, log (Vss,u)=log a+b log BW,
where BW represents the body weight of the standard species (0.02, 0.2, 10, 4, and 70 kg for mice, rats, dogs, cynomolgus monkeys, and humans, respectively), a represents allometric coefficients, and b is allometric exponents.

CYP2D6 = target: T3, CYP2D6 (Homo sapiens, UniProt P10635); test: Reversible CYP inhibition in HLM, CYP2D6 (dextromethorphan); assay type: in vitro ADME; conditions: for enzyme activity remaining: CYP2D6, HLM
T3 construct: tissue Life Technologies (Durham, NC, USA); host or cells: human liver microsomes
T3 sequence (P10635 whole entry): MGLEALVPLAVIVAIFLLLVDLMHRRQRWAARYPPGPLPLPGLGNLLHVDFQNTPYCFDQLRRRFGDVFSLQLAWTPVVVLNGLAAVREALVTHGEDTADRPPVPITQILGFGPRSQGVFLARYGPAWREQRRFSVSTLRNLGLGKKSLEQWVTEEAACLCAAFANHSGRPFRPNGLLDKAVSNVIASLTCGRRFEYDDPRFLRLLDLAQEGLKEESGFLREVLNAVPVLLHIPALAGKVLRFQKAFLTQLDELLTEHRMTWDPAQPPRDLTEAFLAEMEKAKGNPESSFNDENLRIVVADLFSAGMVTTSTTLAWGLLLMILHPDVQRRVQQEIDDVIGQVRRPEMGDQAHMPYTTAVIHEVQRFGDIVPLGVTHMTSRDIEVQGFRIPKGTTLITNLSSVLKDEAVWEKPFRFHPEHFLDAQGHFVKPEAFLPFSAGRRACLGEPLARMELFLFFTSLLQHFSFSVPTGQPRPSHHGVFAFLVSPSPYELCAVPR
Protocol: as §1

plasma proteins = test: Plasma protein binding (RED), dog plasma; assay type: in vitro ADME
Protocol: The plate containing plasma and buffer was equilibrated for 6 h in a 37°C water shaking bath. After incubation, aliquots of buffer and plasma (20 µL) on both sides were collected and precipitated using organic solvents. […] The post-dialysis recovery of amdizalisib was also measured.

[3] = HLM, reversible, without pre-incubation

In the case of `C[C@H](Nc1ncnc(N)c1C#N)c1cc2ncc(Cl)n2nc1-c1ccccc1` [Amdizalisib], the “activity loss of CYP2C19” value (CYP2C19) is reported as “less than 10%”, the RB ([1]; dog blood, 1 μM, 0 min) is reported as 1.01 and the fuB ([1]; dog, 0 min, 1 µM) is reported as 10.9%. The fup ([1]; dog, 1 µM) was 0.109, the RB ([1]; dog, 10 min, 1 µM) was 0.874 and the fuB ([1]; dog, 10 min, 1 µM) was 12.5%. The RB ([1]; dog, 60 min, 1 µM) was 0.968, the fuB ([1]; dog, 60 min, 1 µM) was 11.3% and the enzyme activity remaining (CYP2B6; 0.4 μM) was 100% and 98.9%. For the same compound, the enzyme activity remaining (CYP2B6; 2 μM) was 96.2% and 92.1%, the enzyme activity remaining (CYP2B6; 5 μM) was 97.4% and 95.1% and the enzyme activity remaining (CYP2B6; 10 μM) was 97.7% and 96.6%. The enzyme activity remaining (CYP2B6; 25 μM) was 87.6%, the enzyme activity remaining (CYP2B6; 50 μM) was 79.7% and 77.1% and the IC50 (CYP2B6; [3]) was > 50 µM. The “predicted human CL” value [2] was 2.57 mL/min/kg, the enzyme activity remaining (CYP2D6; 0.08 μM) was 103% and the enzyme activity remaining (CYP2D6; 0.4 μM) was 103% and 107%. The enzyme activity remaining (CYP2D6; 2 μM) was 104% and 98.0%, the enzyme activity remaining (CYP2D6; 10 μM) was 98.0% and 98.6% and the enzyme activity remaining (CYP2D6; 50 μM) was 80.0% and 84.5%. The IC50 (CYP2D6; [3]) was > 50 µM, the “Binding fraction to plasma proteins, Dog” value (plasma proteins; 0.1 µM) was 87.7 ± 5.15% and the “Binding fraction to plasma proteins, Dog” value (plasma proteins; 1 µM) was 89.1 ± 0.83%. The “Binding fraction to plasma proteins, Dog” value (plasma proteins; 20 µM) was 88.8 ± 0.69%.
